As usually defined, the IC50 is the concentration that gives 50% inhibition. One may read the EC50 as the concentration that produces a half-maximal response.

Square brackets hold non-standard residues; d marks the D form. Peptide text beside a SMILES is read from it. * marks the point of attachment. Dolaproine = CO[C@@H]([C@@H]1CCCN1)[C@@H](C)C(=O)O; Dil = CC[C@H](C)[C@H](NC)[C@@H](CC(=O)O)OC; X1 = C[C@@H](N*)[C@@H](O)c1ccccc1; NMeV = CN[C@H](C(=O)O)C(C)C

Four compounds from patent publication US20250000991A1, “NECTIN-4 ANTIBODIES AND ANTIBODY-DRUG CONJUGATES” (Eli Lilly and Company, priority 2023, published 2025) can be followed below.

The subject of series [1] is UMUC3-Luc-GFP Nectin-4 negative cells. Briefly: Free payload cytotoxicity on UMUC3-Luc-GFP cells. The format is cell-based. The settings on record: 5 days. The procedure:
(§1) UMUC3 cell line was engineered to express human Nectin4 and two clonal populations with different levels of expression were selected. In flat white clear-bottom 96-well plates, UMUC3-hNectin4 clone F7/UMUC3-Luc-GFP cells were mixed and seeded at a total of 1500 cells/well/100 ul with a ratio of 4:1 in assay medium (MEM+1× GlutaMax+10% Heat Inactivated Fetal Bovine Serum+1 mM sodium pyruvate). UMUC3-hNectin4 clone E3/UMUC3-Luc-GFP cells were mixed and seeded at a total of 2100 cells/well/100 ul with a ratio of 6:1 in assay medium. UMUC3-Luc-GFP cells were negative for nectin-4 expression. Plates were incubated at 37° C. with 5% CO2 overnight. Next day, ADCs were added at final working concentration from 100 nM, 1:3 serially diluted in assay medium. To assess sensitivity of cell line to free payload, free payloads were added at final working concentration from 200 nM, 1:3 serially diluted in assay medium. […] Plates were read after 5-days treatment using ONE-Glo™ Luciferase Assay System. […] Luminescence was read in the SpectraMax M5e. […] Percentage of UMUC3-Luc-GFP killing was calculated against no treatment as 0%. Data was graphed and analyzed using Graphpad Prism version 9.5.1. IC50 was determined via log(inhibitor) vs. response (three parameters) curve fitting for bystander activity and log(inhibitor) vs. response (four parameters) for free payload cytotoxicity.

For series [2], the system named is UMUC3-Luc-GFP + UMUC3-hNectin4 clone E3. Briefly: Bystander killing of UMUC3-Luc-GFP cells co-cultured with UMUC3-hNectin4 clone E3 (ONE-Glo). The format is cell-based, human. The settings on record: UMUC3-Luc-GFP + UMUC3-hNectin4 clone E3, ratio 6:1, 5 days; read-out: IC50 of bystander effect. As for the experimental part:
as §1

Series [3] deals with UMUC3-Luc-GFP + UMUC3-hNectin4 clone F7. The series is described as follows: Bystander killing of UMUC3-Luc-GFP cells co-cultured with UMUC3-hNectin4 clone F7 (ONE-Glo). The format is cell-based, human. The procedure: as §1, with “overnight.” for “overnight. Next day, ADCs were added at final working concentration from 100 nM, 1:3 serially diluted in assay medium. To assess sensitivity of cell line to free payload, free payloads were added at final working concentration from 200 nM, 1:3 serially diluted in assay medium.”, “ONE-GloTM” for “ONE-Glo™”, “cytotoxicity. […] In experiments run as essentially described herein, the bystander effects of four nectin-4 ADCs described herein and enfortumab vedotin were evaluated using the UMUC3-hNectin-4 cloneF7/UMUC3-Luciferase-GFP cell pair. […]” for “cytotoxicity.”

The subject of series [4] is T24-hNectin-4 clone 14 cells (MMAE-resistant). The series is described as follows: ADC cytotoxicity in MMAE-resistant cells (CellTiter-Glo). The format is cell-based, human. The settings on record: T24-hNectin-4 clone 14, 5 days. As for the experimental part:
In T24 nectin-4 cells that are resistant to MMAE, two nectin-4 ADCs described herein and enfortumab vedotin were tested for activity. T24-hNectin-4 clone 14 cells were seeded at 500 per well in 100 ul culture medium, in white clear-bottom 96-well tissue culture plates and incubated at 37° C. with 5% CO2 overnight. The next day each ADC was serially diluted 1:4, with a starting concentration of 400 nM, in culture medium. One-hundred ul of each ADC dilution was added per well and the plates were covered with a Breathe-Easy® sealing membrane and incubated at 37° C. with 5% CO2. After 5 days of treatment, the plates were removed from the incubator, placed at room temperature for 15 minutes, and 100 ul medium per well was removed. One hundred ul of CellTiter-Glo reagent was added per well and the plates were incubated at room temperature for 10 minutes. RLUs (Relative Light Units) were obtained by SpectraMax M5e with SoftMax Pro 5.4. Percentage of cell killing was calculated against DMSO only (for free payloads) or no treatment (for ADCs) as 0%. Data was graphed and analyzed using Graphpad Prism version 9.5.1. IC50s were determined via log(inhibitor) vs. response-variable slope (four parameters) curve fitting.

The test system of series [5] is T24 mScarlet clone 5 Nectin-4 negative cells. Briefly: Bystander killing of T24-mScarlet clone 5 cells co-cultured with T24-human nectin4 clone108 (imaging). The format is cell-based. The settings on record: T24-mScarlet clone5 : T24-human nectin4 clone108 9:1, 5 days, ADC Formula XI DAR 8; read-out: IC50 of bystander effect. The procedure: T24 cell line was engineered to express mScarlet and clonally selected to test in bystander assay. T24-mScarlet clone5 and T24-human nectin4 clone108 were mixed and seeded at a total of 1000 cells/well/100 ul with a ratio of 9:1 in culture medium (McCoy's 5A+1× GlutaMax+10% Heat Inactivated Fetal Bovine Serum+400 μg/ml G418) in flat clear bottom 96-well plates. T24 mScarlet clone 5 cells were negative for nectin-4 expression. Plates were incubated at 37° C. with 5% CO2 overnight. Next day, ADCs were added at final working concentration from 50 nM, 1:4 serially diluted in culture medium. Plates were covered with Breathe-Easy® sealing membrane, placed in BioSpa and scanned in Cytation5 every day for 5 days.
Images of T24-mScarlet cells were captured and analyzed by Cytation5 with Gen5 Image Prime 3.11. Percentage of T24-mScarlet cell killing was calculated by decreased Integrated Intensity (area×mean intensity), normalized to zero hour and no treatment. Data was graphed and analyzed using GraphPad Prism version 9.5.1. IC50 was determined via log(inhibitor) vs. response-variable slope (four parameters) curve fitting.

Series [6] has as its system HEKα cells (normal human epidermal keratinocytes). Briefly: Binding to normal human epidermal keratinocytes by flow cytometry. The settings on record: ADC (Formula XI, DAR of 8); read-out: EC50 of cell surface binding to normal human epidermal keratinocytes.
Method: To characterize binding of nectin-4 antibodies and ADCs of the present disclosure to normal human epidermal keratinocytes, HEKα cells were plated in 150×25 mm tissue culture dish (Corning Inc.) in complete culture medium (Dermal Cell Basal Medium+Keratinocytes Growth Kit, ATCC) at 1 million per well to achieve confluency within 24 hours. The differentiation process progressed for an additional 5-10 days. Following the induction of differentiation, cells were dissociated with 2 mg/mL Type XI Collagenase from Clostridium histolyticum (Sigma-Aldrich) at 37° C. Cells were counted and aliquoted to a V-bottom polypropylene 96-well plate (Thermo Scientific Nunc) at 10^5 cells/well. Antibodies and ADCs were added to cells starting at 300 nM, 1:4 serially diluted in assay buffer (1×DPBS containing 2% FBS, Gibco). Cells were incubated on a microplate shaker at 4° C., protected from light for 1 hour. After incubation, cells were washed twice with 200 uL/well of assay buffer and stained with Alexa Fluor 647-conjugated AffiniPure F(ab')2 Fragment Goat Anti-Human IgG (H+L) (Jackson ImmunoResearch) at 1:1,000 dilution. Following an hour incubation at 4° C., cells were washed twice with 200 uL/well of assay buffer and stained with Zombie Green fixable viability dye (BioLegend) at 1:2,000 dilution. Cells were incubated on a microplate shaker at 4° C. for 20 minutes. […]
The test system of series [7] is T24-human nectin4 clone147 cells. Briefly: In vitro CDC assay with human serum complement. The format is cell-based. The settings on record: nectin-4 expressing T24 cell line. The procedure: T24 cell line was engineered to express high level of human Nectin4 and clonally selected. T24-human nectin4 clone147 cells were added in white clear-bottom 96-well tissue culture plates in assay medium (McCoy's 5A+1× GlutaMax+10% Heat Inactivated Fetal Bovine Serum) and incubated in the incubator at 37° C. with 5% CO2 overnight. Next day, 50 ul/well antibodies were added at final working concentration from 200 nM, 1:3 serially diluted in assay medium and incubated at 37° C. with 5% CO2 for one hour. Diluted human serum complement (1:3) was then added at 50 ul/well in assay medium and incubated at 37° C. with 5% CO2 for 3 hours. Plate was read using CellTiter-Glo Luminescent Cell Viability Assay. 100 ul/well CellTiter-Glo reagent were incubated in plates at room temperature for 10 min. Luminescence was read in the SpectraMax M5e. RLUs (Relative Light Units) were obtained with SoftMax Pro 5.4. Percentage of cell killing was calculated against no treatment. Data was graphed and analyzed using GraphPad Prism version 9.5.1.

In series [8] the test system is T24-human Nectin-4-eGFP clone 3 cells. Briefly: Internalization: degradation of nectin-4-eGFP signal by fluorescence imaging. The format is cell-based. The settings on record: ADC (Formula XI, DAR of 8), 24 h time course. The procedure: T24 cell line was engineered to express human Nectin-4-eGFP and clonally selected for high expression. […] human Nectin-4-eGFP clone 3 cells were plated at 12,000 cells per well, in black clear-bottom CellCarrier Ultra 384-well microplates (Perkin Elmer) in complete culture medium (McCoy's 5A, modified, +10% FBS+Glutamax+400 μg/mL G418+Pen/Strep). Plates were covered with AeraSeal™ Sealing Films and incubated overnight at 37° C., 5% CO2. Next day, antibodies and ADCs were added to cells, starting at 300 nM at 1:3 dilution. Plates were covered with AeraSeal™ and placed in incubator for imaging on PerkinElmer Opera Phenix Screening System over a 24 h time course. Data were processed and analyzed in Harmony and Microsoft Excel and graphed in GraphPad Prism.

Series [9] concerns T24-human nectin-4 clone 108. The series is described as follows: ADC cytotoxicity (CellTiter-Glo), high nectin-4 expression line. The format is cell-based. The settings on record: T24 Nectin-4 clone 108, 5 days, ADC Formula XI DAR 8. (ATP-based viability assays read luminescence as a measure of living cells.)
Method: Plates were read after 5 days treatment using CellTiter-Glo Luminescent Cell Viability Assay. 100 ul/well CellTiter-Glo reagent were incubated in plates at room temperature for 10 min. Luminescence was read in the SpectraMax M5e. RLUs (Relative Light Units) were obtained with SoftMax Pro 5.4. Percentage of cell killing was calculated against no treatment as 0%. Data was graphed and analyzed using GraphPad Prism version 9.5.1. IC50 was determined via log(inhibitor) vs. response-variable slope (four parameters) curve fitting.
T24 cell line was engineered to express human nectin-4 and clonally selected. T24-human nectin-4 clone 108, a high expression clonal cell line, was seeded in culture medium (McCoy's 5A+1× GlutaMax+10% Heat Inactivated Fetal Bovine Serum+400 μg/ml G418). ADCs were added at final working concentration from 200 nM, 1:4 serially diluted in culture medium for 5 days.
The test system of the next series is NCI-H1781 cells. The series is described as follows: ADC cytotoxicity (CellTiter-Glo), low nectin-4 expression line. The settings on record: NCI H1781, 5 days, ADC Formula XI DAR 8. The format is cell-based.
Series [10] concerns UM-UC-3 Nectin4 clone F7 xenograft. Briefly: Tumor xenograft, high nectin-4 expression. The format is in vivo, mice (nu/nu). The settings on record: UMUC3 Nectin-4 clone F7 xenograft, single dose 2 mg/kg, day 40. The procedure:
In order to test the efficacy of the nectin-4 ADCs of the present disclosure, which have effector null mutations in the Fc region, and to compare to the enfortumab antibody, which has wildtype Fc and in an ADC with the same payload background as the ones of this disclosure, two tumor xenograft models with either high or moderate nectin-4 expression were tested as described. Immune compromised female mice (nu/nu) between 5-8 weeks of age with weight 18-20 grams were implanted unilaterally on the right flank with UM-UC-3 Nectin4 clone F7 cells with high nectin-4 expression. […] The test articles were given at a single dose (2 mg/kg) formulated with 5% dextrose. Tumors were measured biweekly until Day 40.

A further series relates to MDA-MB-468 xenograft. The series is described as follows: Tumor xenograft, moderate nectin-4 expression. The format is in vivo, NSG mice. The settings on record: MDAMB468 xenograft, single dose 2 mg/kg, day 71. The procedure:
In a separate study, female NSG mice between 5-6 weeks of age were injected subcutaneously with MDA-MB-468 cells with moderate Nectin-4 expression. When tumors reached approximately 150-250 mm^3; animals were matched by tumor volume into treatment or control groups and dosing initiated (Day 0, n=8 per group). The test articles were given at a single dose (2 mg/kg) formulated with 5% Dextrose. Tumors were measured biweekly until Day 71.
In both models, a 2 mg/kg single dose treatment of either the nectin-4 ADCs (exemplified herein with each of Abs1-8 conjugated as in Formula XI, and with a DAR of 8) or benchmark enfortumab ADC (enfortumab conjugated with Formula XI, and with a DAR of 8) was used. Tumor growth was measured at day 40 for UMUC3 Nectin-4 clone F7 and day 71 for MDAMB468 xenografts.

Method for NCI-H1781 cells: NCI-H1781 cells, a low expression cell line, were seeded in white clear-bottom 96-well tissue culture plates in culture medium (RPMI 1640+1× GlutaMax+10% Heat Inactivated Fetal Bovine Serum+1 mM sodium pyruvate). Cells were incubated at 37° C. with 5% CO2 overnight. Next day, ADCs were added at final working concentration from 100 nM, 1:3 serially diluted in culture medium. Plates were covered with Breathe-Easy® sealing membrane and incubated at 37° C. with 5% CO2. Plates were read after 5 days treatment using CellTiter-Glo Luminescent Cell Viability Assay. 100 ul/well CellTiter-Glo reagent were incubated in plates at room temperature for 10 min. Luminescence was read in the SpectraMax M5e. RLUs (Relative Light Units) were obtained with SoftMax Pro 5.4. Percentage of cell killing was calculated against no treatment as 0%. Data was graphed and analyzed using GraphPad Prism version 9.5.1. IC50 was determined via log(inhibitor) vs. response-variable slope (four parameters) curve fitting.

For `CC[C@H](C)[C@@H]([C@@H](CC(=O)N1CCC[C@H]1[C@H](OC)[C@@H](C)C(=O)N[C@H](C)[C@@H](O)c1ccccc1)OC)N(C)C(=O)[C@@H](NC(=O)[C@@H](NC)C(C)C)C(C)C` [MMAE] (H-[NMeV]V[Dil][Dolaproine]-X1), in series [1], the IC50 is 0.38 nM.
For the compound Enfortumab vedotin [reference compound], the half-maximal inhibitory concentration (IC50) stood at 0.35 nM in series [2] and 4.3 nM in [3] (UMUC3-Luc-GFP + UMUC3-hNectin4 clone F7, ratio 4:1, 5 days, read-out: IC50 of bystander effect). In [3] (UMUC3-hNectin-4 cloneF7/UMUC3-Luciferase-GFP 4:1, 5 days), the “Bystander effect (in words)” value was “much less potent bystander effect”. In [4], the “Activity against MMAE-resistant cells” value is on record as “lost efficacy”.
As to Enfortumab, the IC50 in series [5] was determined as 0.0593 nM; in series [9] it was 0.0747 nM; in the series with NCI-H1781 cells it was 0.0409 nM. The concentration for a half-maximal effect (EC50) in [6] amounted to 0.03 nM; in series [8] (read-out: EC50 of nectin-4-eGFP signal loss), 2.55 nM. For the same compound, in [7], the CDC potential entry was “did not show CDC potential”. For the same compound, the “% activity (max GFP signal loss compared to enfortumab mAb (100%))” value in series [8] came to 119.9%.
For “Enfortumab ADC: benchmark: enfortumab conjugated with Formula XI, and with a DAR of 8 [reference compound]”, the Mean tumor volume is reported as 812.22 mm^3 in [10] and 272.28 mm^3 with MDA-MB-468 xenograft.
